Drawing on patent US20250375460A1, “STAT DEGRADERS AND USES THEREOF” (Kymera Therapeutics, Inc., priority 2022, published 2025), this text covers DC50 for 22 molecules.

T1 sequence (P40763 whole entry): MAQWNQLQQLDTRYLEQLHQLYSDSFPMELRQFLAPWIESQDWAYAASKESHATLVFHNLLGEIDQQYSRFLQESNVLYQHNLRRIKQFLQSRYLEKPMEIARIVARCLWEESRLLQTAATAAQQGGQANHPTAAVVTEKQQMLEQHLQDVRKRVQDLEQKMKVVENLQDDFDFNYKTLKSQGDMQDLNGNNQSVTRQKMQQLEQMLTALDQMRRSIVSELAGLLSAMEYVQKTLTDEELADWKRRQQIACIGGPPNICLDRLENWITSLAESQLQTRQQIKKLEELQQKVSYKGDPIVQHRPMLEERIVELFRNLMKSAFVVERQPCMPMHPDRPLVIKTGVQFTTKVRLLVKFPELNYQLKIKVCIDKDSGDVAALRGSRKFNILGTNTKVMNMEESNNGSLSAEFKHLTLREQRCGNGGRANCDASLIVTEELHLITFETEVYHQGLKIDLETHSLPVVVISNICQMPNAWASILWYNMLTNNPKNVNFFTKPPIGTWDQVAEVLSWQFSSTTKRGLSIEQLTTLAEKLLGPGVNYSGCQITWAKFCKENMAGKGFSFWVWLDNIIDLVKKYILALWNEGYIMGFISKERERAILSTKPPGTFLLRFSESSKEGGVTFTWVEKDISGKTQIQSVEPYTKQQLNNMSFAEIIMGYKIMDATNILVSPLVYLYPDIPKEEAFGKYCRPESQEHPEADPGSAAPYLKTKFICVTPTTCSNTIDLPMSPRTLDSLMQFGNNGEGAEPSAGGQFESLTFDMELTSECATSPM

This test concerns the target T1, STAT3 (Homo sapiens, UniProt P40763).
T1 construct: expressed in transfected cells; host or cells: A549
In words: STAT3 HiBiT degradation assay in transfected A549 cells. Type of test: cell-based. Particulars: 24 h compound incubation, Nano-Glo HiBiT lytic detection, read-out: STAT3 HiBiT A549 degradation 24 h: Average external-Abs DC50. How it is done: Compound preparation and Cell seeding: The transfected A549 cells were harvested from dish into cell culture medium and cell numbers counted. Cells were diluted with culture medium to the desired density and 30 μL of cell suspension (about 2000 cells/well) were added into each well of a 384-well cell culture plate as designated and transferred into 37° C. 5% CO2 incubator for 24 h. Compounds were dissolved to 10 mM stock solution and 12 μL of the stock solution was transferred to a 384 LDV-plate. 3 fold, 10-point dilution was performed by transferring 4 μL compound into 8 μL DMSO using a TECAN (EVO200) liquid handler. 30 μL of diluted compound from compound source plate was transferred into the cell plate as designated by using Echo550 and transferred into 37° C. 5% CO2 incubator for 24 h.
Detection: Plates were removed from incubators and equilibrated at room temperature for 15 minutes. Nano-Glo Hibit Lytic Detection reagent (Promega Cat #N3040) was thawed and equilibrated to room temperature before the experiment. 30 μL of Nano-Glo Hibit Lytic Detection reagent was added into each well to be detected. The plates were held at room temperature for 10 min followed by reading on EnSpire.
Data analysis: The remaining activity was calculated following the formula: Remaining Activity(%)=100%×(Lumsample−LumNC)/(LumPC−LumNC). Calculate the IC50 by fitting the curve using Xlfit (v5.3.1.3), equation 201: fit=(A+((B−A)/(1+((x/C)^D)))); A: Bottom; B: Top; C: IC50; and D: Slope.
The letter codes for STAT3 DC50 include: A (<0.001 μM), B (0.001-0.01 μM), C (0.01-0.1 μM), and D (>0.1 μM).
On the technique in general: The HiBiT peptide binds its large partner to form an active luciferase.
Broadly, the DC50 is the concentration at which degradation of the target reaches its halfway point. Turning to `C#Cc1ccc([C@H](C)NC(=O)[C@@H]2C[C@@H](O)CN2C(=O)[C@@H](c2cc(OCCCc3cccc(OC[C@H](CCC(N)=O)NC(=O)[C@@H]4CC[C@@H]5CCN(C(C)=O)C[C@H](NC(=O)c6cc7cc(C(=O)P(=O)(O)O)ccc7[nH]6)C(=O)N54)c3Cl)no2)C(C)C)cc1` [I-1], the DC50 is below 1 nM. The result for `CC(=O)N1CC[C@H]2CC[C@@H](C(=O)N[C@@H](CCC(N)=O)COc3cccc(CCCOc4cc([C@@H](C(=O)N5C[C@H](O)C[C@H]5C(=O)N[C@@H](C)c5ccc(-c6scnc6C)cc5)C(C)C)on4)c3Cl)N2C(=O)[C@@H](NC(=O)c2cc3cc(C(=O)P(=O)(O)O)ccc3[nH]2)C1` [I-2] reads 10 to 100 nM; that for `C#Cc1ccc(CNC(=O)[C@@H]2C[C@@H](O)CN2C(=O)[C@@H](c2cc(OCCCc3cccc(OC[C@H](CCC(N)=O)NC(=O)[C@@H]4CC[C@@H]5CCN(C(C)=O)C[C@H](NC(=O)c6cc7cc(C(=O)P(=O)(O)O)ccc7[nH]6)C(=O)N54)c3Cl)no2)C(C)C)cc1` [I-3], below 1 nM; that for `C#Cc1ccc([C@H](C)NC(=O)[C@@H]2C[C@@H](O)CN2C(=O)[C@@H](NC(=O)CCCc2cccc(OC[C@H](CCC(N)=O)NC(=O)[C@@H]3CC[C@@H]4CCN(C(C)=O)C[C@H](NC(=O)c5cc6cc(C(=O)P(=O)(O)O)ccc6[nH]5)C(=O)N43)c2Cl)C(C)(C)C)cc1` [I-4], 1 to 10 nM. Consider `C#Cc1ccc(CNC(=O)[C@@H]2C[C@@H](O)CN2C(=O)[C@@H](NC(=O)CCCc2cccc(OC[C@H](CCC(N)=O)NC(=O)[C@@H]3CC[C@@H]4CCN(C(C)=O)C[C@H](NC(=O)c5cc6cc(C(=O)P(=O)(O)O)ccc6[nH]5)C(=O)N43)c2Cl)C(C)(C)C)cc1` [I-5], for which the DC50 fell in the range of 1 to 10 nM.

Consider `C#Cc1ccc(CNC(=O)[C@@H]2C[C@@H](O)CN2C(=O)[C@@H](c2cc(OCCCc3cccc(OC[C@H](CCC(N)=O)NC(=O)[C@@H]4CC[C@@H]5CCN(C(C)=O)C[C@H](NC(=O)c6cc7cc(C(=O)P(=O)(O)O)ccc7[nH]6)C(=O)N54)c3F)no2)C(C)C)cc1` [I-7], for which the DC50 was below 1 nM. The result for `C#Cc1ccc([C@H](C)NC(=O)[C@@H]2C[C@@H](O)CN2C(=O)[C@@H](NC(=O)CCCc2cccc(OC[C@H](CCC(N)=O)NC(=O)[C@@H]3CC[C@@H]4CCN(C(C)=O)C[C@H](NC(=O)c5cc6cc(C(=O)P(=O)(O)O)ccc6[nH]5)C(=O)N43)c2F)C(C)(C)C)cc1` [I-8] reads 1 to 10 nM; that for `C#Cc1ccc(CNC(=O)[C@@H]2C[C@@H](O)CN2C(=O)[C@@H](NC(=O)CCCc2cccc(OC[C@H](CCC(N)=O)NC(=O)[C@@H]3CC[C@@H]4CCN(C(C)=O)C[C@H](NC(=O)c5cc6cc(C(=O)P(=O)(O)O)ccc6[nH]5)C(=O)N43)c2F)C(C)(C)C)cc1` [I-9], 1 to 10 nM.

On to `C#Cc1ccc([C@H](C)NC(=O)[C@@H]2C[C@@H](O)CN2C(=O)[C@@H](c2cc(OCCCc3cccc(OC[C@H](CCC(N)=O)NC(=O)[C@@H]4CC[C@@H]5CCN(C(C)=O)C[C@H](NC(=O)c6cc7cc(C(=O)P(=O)(O)O)ccc7[nH]6)C(=O)N54)c3C)no2)C(C)C)cc1` [I-10], for which the DC50 fell in the range of 1 to 10 nM.

Regarding `C#Cc1ccc([C@H](C)NC(=O)[C@@H]2C[C@@H](O)CN2C(=O)[C@H](c2cc(OCCCc3cccc(OC[C@H](CCC(N)=O)NC(=O)[C@@H]4CC[C@@H]5CCN(C(C)=O)C[C@H](NC(=O)c6cc7cc(C(=O)P(=O)(O)O)ccc7[nH]6)C(=O)N54)c3C)no2)C(C)C)cc1` [I-11], the DC50 is above 100 nM. The result for `C#Cc1ccc([C@H](C)NC(=O)[C@@H]2C[C@@H](O)CN2C(=O)[C@@H](NC(=O)CCCc2cccc(OC[C@H](CCC(N)=O)NC(=O)[C@@H]3CC[C@@H]4CCN(C(C)=O)C[C@H](NC(=O)c5cc6cc(C(=O)P(=O)(O)O)ccc6[nH]5)C(=O)N43)c2C)C(C)(C)C)cc1` [I-13] reads 10 to 100 nM; that for `C#Cc1ccc(CNC(=O)[C@@H]2C[C@@H](O)CN2C(=O)[C@@H](NC(=O)CCCc2cccc(OC[C@H](CCC(N)=O)NC(=O)[C@@H]3CC[C@@H]4CCN(C(C)=O)C[C@H](NC(=O)c5cc6cc(C(=O)P(=O)(O)O)ccc6[nH]5)C(=O)N43)c2C)C(C)(C)C)cc1` [I-14], 1 to 10 nM.

For the molecule `CC(=O)N1CC[C@H]2CC[C@@H](C(=O)N[C@@H](CCC(N)=O)COc3cccc(CCCOc4cc([C@H](C(=O)N5C[C@H](O)C[C@H]5C(=O)N[C@@H](C)c5ccc(-c6scnc6C)cc5)C(C)C)on4)c3F)N2C(=O)[C@@H](NC(=O)c2cc3cc(C(=O)P(=O)(O)O)ccc3[nH]2)C1` [I-15], the DC50 is below 1 nM.

In the case of `CC(=O)N1CC[C@H]2CC[C@@H](C(=O)N[C@@H](CCC(N)=O)COc3cccc(CCCOc4cc([C@@H](C(=O)N5C[C@H](O)C[C@H]5C(=O)N[C@@H](C)c5ccc(-c6scnc6C)cc5)C(C)C)on4)c3C)N2C(=O)[C@@H](NC(=O)c2cc3cc(C(=O)P(=O)(O)O)ccc3[nH]2)C1` [I-20], the DC50 was in the range of 10 to 100 nM.

`CC(=O)N1CC[C@H]2CC[C@@H](C(=O)N[C@@H](CCC(N)=O)COc3cccc(CCCOc4cc([C@H](C(=O)N5C[C@H](O)C[C@H]5C(=O)NCc5ccc(-c6scnc6C)cc5)C(C)C)on4)c3C)N2C(=O)[C@@H](NC(=O)c2cc3cc(C(=O)P(=O)(O)O)ccc3[nH]2)C1` [I-21]: the DC50 was below 1 nM. As to `CC(=O)N1CC[C@H]2CC[C@@H](C(=O)N[C@@H](CCC(N)=O)COc3cccc(CCCOc4cc([C@@H](C(=O)N5C[C@H](O)C[C@H]5C(=O)NCc5ccc(-c6scnc6C)cc5)C(C)C)on4)c3C)N2C(=O)[C@@H](NC(=O)c2cc3cc(C(=O)P(=O)(O)O)ccc3[nH]2)C1` [I-22], the DC50 lay within 10 to 100 nM. Consider `CC(=O)N1CC[C@H]2CC[C@@H](C(=O)N[C@@H](CCC(N)=O)COc3cccc(CCCOc4cc([C@H](C(=O)N5C[C@H](O)C[C@H]5C(=O)N[C@@H](C)c5ccc(-c6scnc6C)cc5)C(C)C)on4)c3Cl)N2C(=O)[C@@H](NC(=O)c2cc3cc(C(=O)P(=O)(O)O)ccc3[nH]2)C1` [I-23], for which the DC50 is below 1 nM. The result for `CC(=O)N1CC[C@@H]2CC[C@H](C(=O)N[C@@H](CCC(N)=O)COc3cccc(CCCCC(=O)N[C@H](C(=O)N4C[C@H](O)C[C@H]4C(=O)NCc4ccc(-c5scnc5C)cc4)C(C)(C)C)c3Cl)N2C(=O)[C@H](NC(=O)c2cc3cc(C(=O)P(=O)(O)O)ccc3[nH]2)C1` [I-24] reads above 100 nM; that for `CCOP(=O)(OCC)C(=O)c1ccc2[nH]c(C(=O)N[C@H]3CN(C(C)=O)CC[C@H]4CC[C@@H](C(=O)N[C@@H](CCC(N)=O)COc5cccc(CCCOc6cc([C@H](C(=O)N7C[C@H](O)C[C@H]7C(=O)NCc7ccc(-c8scnc8C)cc7)C(C)C)on6)c5Cl)N4C3=O)cc2c1` [I-25], 10 to 100 nM; that for `CNC(=O)N1CC[C@H]2CC[C@@H](C(=O)N[C@@H](CCC(N)=O)COc3cccc(CCCC(=O)N[C@H](C(=O)N4C[C@H](O)C[C@H]4C(=O)N[C@@H](C)c4ccc(-c5scnc5C)cc4)C(C)(C)C)c3Cl)N2C(=O)[C@@H](NC(=O)c2cc3cc(C(F)(F)P(=O)(O)O)ccc3s2)C1` [I-26], above 100 nM. Take `CC(=O)N1CC[C@H]2CC[C@@H](C(=O)N[C@@H](CCC(N)=O)COc3cccc(CCCOc4cc([C@H](C(=O)N5C[C@H](O)C[C@H]5C(=O)NCc5ccc(-c6scnc6C)cc5)C(C)C)on4)c3Cl)N2C(=O)[C@@H](NC(=O)c2cc3cc(C(=O)P(=O)(O)O)ccc3[nH]2)C1` [I-27]: the DC50 was below 1 nM.

As to `CC(=O)N1CC[C@H]2CC[C@@H](S(=O)(=O)N[C@@H](CCC(N)=O)COc3cccc(CCCC(=O)N[C@H](C(=O)N4C[C@H](O)C[C@H]4C(=O)N[C@@H](C)c4ccc(-c5scnc5C)cc4)C(C)(C)C)c3Cl)N2C(=O)[C@@H](NC(=O)c2cc3cc(C(=O)P(=O)(O)O)ccc3[nH]2)C1` [I-30], the DC50 lay in the range of 1 to 10 nM.
